Assay results taken from paper PMC8165744, “Identification of an Alternative Glycyrrhizin Metabolite Causing Liquorice-Induced Pseudohyperaldosteronism and the Development of ELISA System to Detect the Predictive Biomarker” (Frontiers in Pharmacology, 2021).
Like-named read-outs stand apart in the source and are kept apart here.

Assays:
[1] = measurement of GL metabolites in human serum and urine samples (LC-MS/MS); assay type: in vivo
Experimental: Measurement of Compound 4 in Human Serum Samples
Human serum samples (100 µl) were pre-treated as described in the protocol reported in our previous study ([Takahashi et al., 2019]), and the concentration of 4 was measured using LC-tandem mass spectrometry (MS/MS) as described below. This study was conducted with the approval of the appropriate ethics committee at Keio University, Chiba University, Kanazawa University, and Kameda Medical Center.
(§1) Briefly, after diluting serum and urine samples with water to obtain suitable concentrations, they were digested with subtilisin (0.91 U/ml), followed by the addition of astragaloside IV (used as an internal standard; Fujifilm Wako Pure Chemicals, Osaka, Japan), and deproteinized using 80% ethanol. […] The transitions (precursor to daughter) monitored and retention times were as follows: ESI(+), 743.4 to 567.5 m/z (35 and 25 V for cone voltage and collision energy, respectively) for compound 1 (8.1 min); ESI(–), 565.5 to 96.5 m/z (80 and 60 V) for 2 (9.6 min); ESI(–), 549.5 to 96.5 m/z (80 and 60 V) for 3 (15.4 min); ESI(+), 727.3 to 551.2 m/z (30 and 25 V) for 4 (11.3 min); ESI(+), 647.6 to 453.6 m/z (40 and 20 V) for 3MGA (15.0 min); ESI(+), 471.3 to 91.0 m/z (40 and 20 V) for GA (13.4 min); ESI(+), 823.5 to 453.6 m/z (30 and 20 V) for GL (18.4 min); and ESI(+), 785.4 to 143.0 m/z (30 and 20 V) for astragaloside IV (3.0 min). Linear regressions over the concentration range of 2 nM to 2 µM for each compound were examined using the peak-area ratio of the compounds to their internal standards and the least-squares method (r ^ 2 > 0.98). The detection limits for 1, GL, and GA were 6.4 nM, and those for 2, 3, and 4, and 3MGA were 3.2 nM.

[2] = elimination of GA metabolites in SD rats intravenously injected with GA; assay type: in vivo, Sprague-Dawley (SD) rats; details: female SD rats
Text: as §1
FIGURE 6 Elimination of glycyrrhizin (GL) metabolites into bile in Sprague-Dawley (SD) rats. Female SD rats (10 week-old) were anesthetized using intraperitoneal injection of urethane (1 g/kg), and biliary tracts were cannulated. […] Concentrations of GA metabolites were measured using liquid chromatography-tandem mass spectrometry (LC-MS/MS) and accumulated elimination of GA-metabolites are means ± standard error (S.E: n = 3).

anti-3MGA-mAb = experiment: competitive ELISA using anti-3MGA-mAb; assay type: binding; details: competitive ELISA in aqueous solution, 3MGA calibrated to 100%
Experimental: ELISA System Using anti-3MGA-mAb
An ELISA system to measure the cross-reactivity of compounds 3 and 4 by using 3MGA-HSA-conjugate and anti-3MGA-mAb was used according to the protocol in our previous study ([Ishiuchi et al., 2019]). To measure the concentration of 3 in human serum samples using the system ELISA, 3 was dissolved in normal human serum (Sigma) to prepare standard solutions (16 nM–2.0 µM) and the samples or standard solutions (each 10 µl) and ethanol (40 µl) were well mixed and centrifuged (1.2 × 10^4 × g for 7 min). The supernatant was dried up under nitrogen flow at 40°C overnight, and the residue was dissolved in Can Get Signal® Solution 1 (Toyobo Co., Ltd: Osaka, Japan) (50 µl). […] When the observed values were more than 400 nM, the deproteinized serum samples were further diluted with Can Get Signal® Solution 1 for two or four times and analyzed again to observe values from 15.6 to 400 nM.
FIGURE 4 Development of enzyme-linked immunosorbent assay (ELISA) system to measure concentrations of 3 in human serum samples using anti-18β-glycyrrhetyl-3-O-glucuronide (3MGA)-monoclonal antibody (mAb). […] Standard lines between absorbance and concentrations of compound 3 are shown (D) Accuracy of ELISA system in measuring concentrations of 3 in human serum samples using anti-3MGA-mAb. Human serum samples were deproteinized, and concentration of 3 was measured using ELISA system. […]

[3] = molecular target: T1, rat type-2 11β-hydroxysteroid dehydrogenase (11β-HSD2) (Rattus norvegicus, UniProt P50233); experiment: in vitro 11β-HSD2 activity using rat kidney microsomes; assay type: biochemical; details: rat kidney microsome fraction, 37°C, 30 min
T1 construct: from tissue; host or cells: rat kidney microsome fraction
T1 sequence (P50233 1-400): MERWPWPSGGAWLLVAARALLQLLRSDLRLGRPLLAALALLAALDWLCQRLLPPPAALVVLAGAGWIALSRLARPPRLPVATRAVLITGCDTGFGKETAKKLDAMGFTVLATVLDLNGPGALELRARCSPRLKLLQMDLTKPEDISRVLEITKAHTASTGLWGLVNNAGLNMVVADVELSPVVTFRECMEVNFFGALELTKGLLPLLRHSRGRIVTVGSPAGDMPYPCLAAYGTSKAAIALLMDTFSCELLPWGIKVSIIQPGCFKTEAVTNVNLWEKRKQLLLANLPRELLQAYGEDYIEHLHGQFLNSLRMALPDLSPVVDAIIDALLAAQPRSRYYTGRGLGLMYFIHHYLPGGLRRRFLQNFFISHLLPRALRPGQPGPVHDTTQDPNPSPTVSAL
Experimental: Determination of in vitro 11β-HSD2 Activity Using Rat Kidney Microsomes
Then, the amount of [^3H] cortisol was measured. […] Kidneys were collected from normal Sprague-Dawley (SD) rats and slices were incubated with plasma samples of female EHBRs at 37°C or 4°C for 2 h, and then homogenized. […] HEK293 cells transfected with OAT1 or OAT3 were incubated with 1:2 diluted plasma samples of male EHBRs at 37°C for 15 min. Then, concentrations of 4 in cells were measured using LC-MS/MS.

[4] = pharmacokinetics of GA metabolites in EHBRs orally treated with GA; assay type: in vivo, Eisai hyperbilirubinuria rats (EHBRs); details: Eisai hyperbilirubinuria rat (EHBR), plasma, oral GA 200 mg/kg, 24 h after treatment, read-out: concentration in plasma sample

SMILES: CC1(C)[C@@H](OS(=O)(=O)O)CC[C@]2(C)[C@H]3C(=O)C=C4[C@@H]5C[C@@](C)(C(=O)O[C@@H]6O[C@H](C(=O)O)[C@@H](O)[C@H](O)[C@H]6O)CC[C@]5(C)CC[C@@]4(C)[C@]3(C)CC[C@@H]12 [Compound 4, 18β-glycyrrhetyl-3-O-sulfate-30-O-glucuronide]
- serum concentration of 4 relative to that of 3 (fold lower) ([1]; human serum, patients with suspected pseudohyperaldosteronism): approximately 10 fold
- concentration in urine ([1]; human, one urine sample among 20 available samples): 0.003 µM
- number of serum samples in which compound was detected ([1]; of 70 participants taking liquorice-containing herbal preparations): 62 samples
- accumulation in the bile ([2]; GA 0.2 mg/kg iv, bile collected for 4 h): the highest
- accumulative elimination in faeces ([2]; GA iv, faeces collected 24 h after injection): below detectable levels
- cross-reactivity to anti-3MGA-mAb (anti-3MGA-mAb): 40%
- IC50 [3]: 380 nM
- concentration at 24 h ([4]; female EHBRs): 115 µM
- concentration at 24 h ([4]; male EHBRs): 189 µM
